ChEMBL document CHEMBL4052645, “Discovery of potent and efficacious pyrrolopyridazines as dual JAK1/3 inhibitors” (Bioorg Med Chem Lett, 2017)
pIC50: −log10 of the molar value. Active and inactive are the calls of the source. The rule behind the calls is not given here.

How the values were obtained:
[1] = Clearance of compound in rat; format: ADME; settings: in vivo
[2] = system: Serum; test: Protein binding in human serum; format: ADME, cell-free
[3] = Oral bioavailability in rat; format: ADME, organism-based; settings: in vivo
[4] = species on record: Rattus norvegicus; test: Clearance of compound in rat relative to hepatic blood flow; format: ADME; settings: in vivo
[5] = system: Mus musculus; test: Antiarthritic activity in collagen-induced mouse model assessed as […] at 20 mg/kg bid up to 41 days; format: functional, organism-based
[6] = system: Mus musculus; test: Antiarthritic activity in collagen-induced arthritis mouse model assessed as reduction in inflammation at 20 mg/kg bid measure up to 41 days; format: functional, organism-based
[7] = Cmin in mouse at 10 mg/kg, po after 8 hrs; format: ADME, organism-based; settings: in vivo, read-out: Cmin
[8] = Selectivity ratio of IC50 for JAK2 dependent EPO-induced STAT5A phosphorylation in human TF1 cells to IC50 for JAK1/JAK3 dependent IL2-induced STAT3 phosphorylation in human PBMC derived T-cells
[9] = target: Voltage-gated inwardly rectifying potassium channel KCNH2 (Homo sapiens, UniProt Q12809); test: Inhibition of human ERG by flux-based assay
[10] = Metabolic stability in mouse liver microsomes assessed as compound remaining after 10 mins; format: ADME, microsome; settings: read-out: Stability
[11] = target: Tyrosine-protein kinase JAK1 (Homo sapiens, UniProt P23458); test: Inhibition of GST-tagged JAK1 (unknown origin) after 3 hrs by Caliper assay
[12] = target: Non-receptor tyrosine-protein kinase TYK2 (Homo sapiens, UniProt P29597); test: Inhibition of His-tagged TYK2 (unknown origin) after 3 hrs by Caliper assay
[13] = Permeability from apical side to basolateral side in human Caco2 cells; format: ADME, cell-based; settings: Caco-2, read-out: permeability
[14] = target: JAK3/JAK1 (Homo sapiens, UniProt P23458+P52333); test: Inhibition of JAK1/JAK3 in human whole blood assessed as reduction in IL-2 induced IFN-gamma production after 18 hrs by ELISA; format: protein-complex assay
[15] = target: Tyrosine-protein kinase JAK2 (Homo sapiens, UniProt O60674); test: Inhibition of GST-tagged JAK2 (unknown origin) after 3 hrs by Caliper assay
[16] = Cmax in mouse at 10 mg/kg, po after 8 hrs; format: ADME, organism-based; design: dose 10 mg/kg, route oral; settings: in vivo
[17] = target: T1, Tyrosine-protein kinase JAK3 (Homo sapiens, UniProt P52333); test: Inhibition of JAK3 (unknown origin) using CSKtide as substrate after 30 mins in presence of [gamma33P]ATP by liquid scintillation counting method
T1 sequence (P52333 whole entry): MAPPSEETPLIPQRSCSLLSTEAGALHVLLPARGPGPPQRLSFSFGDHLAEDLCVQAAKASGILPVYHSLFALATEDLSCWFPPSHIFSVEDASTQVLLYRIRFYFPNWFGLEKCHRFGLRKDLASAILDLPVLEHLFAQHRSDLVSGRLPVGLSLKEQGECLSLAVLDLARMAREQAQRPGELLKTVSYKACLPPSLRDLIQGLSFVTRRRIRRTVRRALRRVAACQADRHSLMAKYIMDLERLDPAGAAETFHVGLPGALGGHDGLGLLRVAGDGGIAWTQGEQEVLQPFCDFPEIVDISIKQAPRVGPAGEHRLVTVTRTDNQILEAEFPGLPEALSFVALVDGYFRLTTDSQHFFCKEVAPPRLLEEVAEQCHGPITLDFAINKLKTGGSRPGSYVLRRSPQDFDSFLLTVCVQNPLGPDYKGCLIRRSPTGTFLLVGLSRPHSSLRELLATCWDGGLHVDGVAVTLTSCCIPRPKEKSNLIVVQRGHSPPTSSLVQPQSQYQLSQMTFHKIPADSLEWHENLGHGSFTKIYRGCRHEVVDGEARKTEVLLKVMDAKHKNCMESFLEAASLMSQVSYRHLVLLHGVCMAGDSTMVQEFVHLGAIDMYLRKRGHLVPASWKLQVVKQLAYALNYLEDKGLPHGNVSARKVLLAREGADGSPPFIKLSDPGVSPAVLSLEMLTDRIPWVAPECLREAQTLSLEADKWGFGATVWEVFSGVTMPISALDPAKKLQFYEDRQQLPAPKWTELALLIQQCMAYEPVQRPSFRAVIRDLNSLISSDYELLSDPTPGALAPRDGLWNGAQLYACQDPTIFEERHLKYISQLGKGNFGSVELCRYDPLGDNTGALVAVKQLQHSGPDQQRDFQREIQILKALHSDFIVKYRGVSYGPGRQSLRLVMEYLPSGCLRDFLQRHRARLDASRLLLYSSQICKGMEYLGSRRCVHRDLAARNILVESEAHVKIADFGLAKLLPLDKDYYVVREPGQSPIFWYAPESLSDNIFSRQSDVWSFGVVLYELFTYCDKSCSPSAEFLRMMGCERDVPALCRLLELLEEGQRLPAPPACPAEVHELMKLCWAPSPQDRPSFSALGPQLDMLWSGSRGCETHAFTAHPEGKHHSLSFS

Sequence of Tyrosine-protein kinase JAK1 (P23458 whole entry): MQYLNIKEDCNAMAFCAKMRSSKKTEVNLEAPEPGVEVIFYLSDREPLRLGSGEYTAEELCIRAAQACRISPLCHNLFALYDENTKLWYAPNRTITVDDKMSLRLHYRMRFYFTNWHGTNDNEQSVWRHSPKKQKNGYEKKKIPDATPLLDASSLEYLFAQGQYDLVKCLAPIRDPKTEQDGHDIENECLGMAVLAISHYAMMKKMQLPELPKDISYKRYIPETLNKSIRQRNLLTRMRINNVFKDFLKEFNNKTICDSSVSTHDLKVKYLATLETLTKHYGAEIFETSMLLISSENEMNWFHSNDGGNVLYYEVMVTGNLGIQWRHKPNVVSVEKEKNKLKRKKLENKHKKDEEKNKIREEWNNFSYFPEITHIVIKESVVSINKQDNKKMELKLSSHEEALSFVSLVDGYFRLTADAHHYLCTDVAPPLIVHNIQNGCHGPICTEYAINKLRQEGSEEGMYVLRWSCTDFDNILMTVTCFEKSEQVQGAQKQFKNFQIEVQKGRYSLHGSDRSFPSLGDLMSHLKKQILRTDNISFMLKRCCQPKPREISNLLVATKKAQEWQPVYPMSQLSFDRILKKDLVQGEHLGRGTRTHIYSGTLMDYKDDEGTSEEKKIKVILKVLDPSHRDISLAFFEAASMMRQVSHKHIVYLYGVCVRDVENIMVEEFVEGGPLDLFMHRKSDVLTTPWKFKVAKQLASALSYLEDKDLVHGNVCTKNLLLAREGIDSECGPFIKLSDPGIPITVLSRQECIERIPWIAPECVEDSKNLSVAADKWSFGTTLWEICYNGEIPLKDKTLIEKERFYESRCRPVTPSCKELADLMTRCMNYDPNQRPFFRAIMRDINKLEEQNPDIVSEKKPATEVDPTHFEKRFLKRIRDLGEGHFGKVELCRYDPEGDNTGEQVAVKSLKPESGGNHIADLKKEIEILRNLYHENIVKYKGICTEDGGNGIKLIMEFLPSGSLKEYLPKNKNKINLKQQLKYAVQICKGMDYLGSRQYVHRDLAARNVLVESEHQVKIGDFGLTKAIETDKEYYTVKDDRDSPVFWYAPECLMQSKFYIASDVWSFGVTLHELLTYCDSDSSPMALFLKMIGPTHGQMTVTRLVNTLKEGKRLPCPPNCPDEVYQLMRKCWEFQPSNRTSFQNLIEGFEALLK
Sequence of Tyrosine-protein kinase JAK2 (O60674 whole entry): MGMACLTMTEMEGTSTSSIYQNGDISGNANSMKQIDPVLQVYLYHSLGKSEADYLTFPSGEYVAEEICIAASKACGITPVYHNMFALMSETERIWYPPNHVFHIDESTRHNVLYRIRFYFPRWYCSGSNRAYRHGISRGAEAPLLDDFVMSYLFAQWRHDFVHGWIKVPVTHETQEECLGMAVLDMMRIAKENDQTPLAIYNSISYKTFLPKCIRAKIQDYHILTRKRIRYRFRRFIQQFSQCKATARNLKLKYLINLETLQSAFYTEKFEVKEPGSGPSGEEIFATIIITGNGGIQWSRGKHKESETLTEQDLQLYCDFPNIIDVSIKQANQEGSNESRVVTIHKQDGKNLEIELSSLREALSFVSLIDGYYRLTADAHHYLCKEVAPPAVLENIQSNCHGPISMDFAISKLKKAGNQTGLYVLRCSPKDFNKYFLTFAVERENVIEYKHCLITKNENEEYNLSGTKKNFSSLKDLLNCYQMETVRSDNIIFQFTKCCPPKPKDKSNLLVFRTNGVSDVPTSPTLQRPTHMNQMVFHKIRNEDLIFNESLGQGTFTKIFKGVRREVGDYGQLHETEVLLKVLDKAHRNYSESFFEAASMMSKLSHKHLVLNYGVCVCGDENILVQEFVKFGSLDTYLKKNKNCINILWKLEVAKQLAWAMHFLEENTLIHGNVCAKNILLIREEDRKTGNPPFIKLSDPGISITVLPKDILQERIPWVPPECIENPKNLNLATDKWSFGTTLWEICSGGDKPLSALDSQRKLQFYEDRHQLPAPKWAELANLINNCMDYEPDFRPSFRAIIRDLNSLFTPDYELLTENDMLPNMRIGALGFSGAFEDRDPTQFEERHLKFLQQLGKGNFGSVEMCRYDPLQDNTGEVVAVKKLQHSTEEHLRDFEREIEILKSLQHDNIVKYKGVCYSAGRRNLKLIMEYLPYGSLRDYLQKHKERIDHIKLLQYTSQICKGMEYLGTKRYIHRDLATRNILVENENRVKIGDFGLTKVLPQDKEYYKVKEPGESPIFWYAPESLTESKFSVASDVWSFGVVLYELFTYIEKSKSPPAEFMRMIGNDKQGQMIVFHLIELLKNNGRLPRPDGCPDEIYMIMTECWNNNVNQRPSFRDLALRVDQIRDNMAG
Sequence of Non-receptor tyrosine-protein kinase TYK2 (P29597 whole entry): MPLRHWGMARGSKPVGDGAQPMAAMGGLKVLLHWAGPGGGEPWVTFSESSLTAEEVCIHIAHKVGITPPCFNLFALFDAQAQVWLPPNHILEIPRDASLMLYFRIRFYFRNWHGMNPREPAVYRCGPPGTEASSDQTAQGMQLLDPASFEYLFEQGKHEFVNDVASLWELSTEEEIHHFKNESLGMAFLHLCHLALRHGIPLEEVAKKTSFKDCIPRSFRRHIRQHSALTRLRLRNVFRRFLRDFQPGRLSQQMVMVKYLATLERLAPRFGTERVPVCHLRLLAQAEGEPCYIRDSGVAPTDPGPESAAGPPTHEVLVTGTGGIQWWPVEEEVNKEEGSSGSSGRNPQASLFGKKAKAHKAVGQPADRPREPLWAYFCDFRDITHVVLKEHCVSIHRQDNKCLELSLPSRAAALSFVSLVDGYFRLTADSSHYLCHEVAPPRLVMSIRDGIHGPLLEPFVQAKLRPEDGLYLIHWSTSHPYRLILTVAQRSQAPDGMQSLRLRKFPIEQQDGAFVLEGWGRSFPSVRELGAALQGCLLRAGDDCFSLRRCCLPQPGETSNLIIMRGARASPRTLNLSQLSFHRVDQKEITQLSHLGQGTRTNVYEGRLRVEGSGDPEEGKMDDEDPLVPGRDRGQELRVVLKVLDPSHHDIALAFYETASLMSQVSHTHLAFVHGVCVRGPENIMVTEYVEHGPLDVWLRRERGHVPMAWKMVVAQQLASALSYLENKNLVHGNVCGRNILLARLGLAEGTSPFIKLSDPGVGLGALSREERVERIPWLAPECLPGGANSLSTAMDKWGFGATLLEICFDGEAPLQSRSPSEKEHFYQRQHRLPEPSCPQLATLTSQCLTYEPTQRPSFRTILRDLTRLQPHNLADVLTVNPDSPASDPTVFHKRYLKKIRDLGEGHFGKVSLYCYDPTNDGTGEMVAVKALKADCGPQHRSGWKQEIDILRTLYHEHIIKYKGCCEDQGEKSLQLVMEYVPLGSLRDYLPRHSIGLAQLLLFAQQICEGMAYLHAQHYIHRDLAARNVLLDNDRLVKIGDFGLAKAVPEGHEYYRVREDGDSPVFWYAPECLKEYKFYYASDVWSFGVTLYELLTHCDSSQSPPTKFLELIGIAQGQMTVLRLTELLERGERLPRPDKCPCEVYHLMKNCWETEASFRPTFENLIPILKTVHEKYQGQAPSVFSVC
Sequence of JAK3/JAK1 (P23458 whole entry, one chain of several): as the sequence (P23458 whole entry) above
Sequence of Voltage-gated inwardly rectifying potassium channel KCNH2 (Q12809 whole entry): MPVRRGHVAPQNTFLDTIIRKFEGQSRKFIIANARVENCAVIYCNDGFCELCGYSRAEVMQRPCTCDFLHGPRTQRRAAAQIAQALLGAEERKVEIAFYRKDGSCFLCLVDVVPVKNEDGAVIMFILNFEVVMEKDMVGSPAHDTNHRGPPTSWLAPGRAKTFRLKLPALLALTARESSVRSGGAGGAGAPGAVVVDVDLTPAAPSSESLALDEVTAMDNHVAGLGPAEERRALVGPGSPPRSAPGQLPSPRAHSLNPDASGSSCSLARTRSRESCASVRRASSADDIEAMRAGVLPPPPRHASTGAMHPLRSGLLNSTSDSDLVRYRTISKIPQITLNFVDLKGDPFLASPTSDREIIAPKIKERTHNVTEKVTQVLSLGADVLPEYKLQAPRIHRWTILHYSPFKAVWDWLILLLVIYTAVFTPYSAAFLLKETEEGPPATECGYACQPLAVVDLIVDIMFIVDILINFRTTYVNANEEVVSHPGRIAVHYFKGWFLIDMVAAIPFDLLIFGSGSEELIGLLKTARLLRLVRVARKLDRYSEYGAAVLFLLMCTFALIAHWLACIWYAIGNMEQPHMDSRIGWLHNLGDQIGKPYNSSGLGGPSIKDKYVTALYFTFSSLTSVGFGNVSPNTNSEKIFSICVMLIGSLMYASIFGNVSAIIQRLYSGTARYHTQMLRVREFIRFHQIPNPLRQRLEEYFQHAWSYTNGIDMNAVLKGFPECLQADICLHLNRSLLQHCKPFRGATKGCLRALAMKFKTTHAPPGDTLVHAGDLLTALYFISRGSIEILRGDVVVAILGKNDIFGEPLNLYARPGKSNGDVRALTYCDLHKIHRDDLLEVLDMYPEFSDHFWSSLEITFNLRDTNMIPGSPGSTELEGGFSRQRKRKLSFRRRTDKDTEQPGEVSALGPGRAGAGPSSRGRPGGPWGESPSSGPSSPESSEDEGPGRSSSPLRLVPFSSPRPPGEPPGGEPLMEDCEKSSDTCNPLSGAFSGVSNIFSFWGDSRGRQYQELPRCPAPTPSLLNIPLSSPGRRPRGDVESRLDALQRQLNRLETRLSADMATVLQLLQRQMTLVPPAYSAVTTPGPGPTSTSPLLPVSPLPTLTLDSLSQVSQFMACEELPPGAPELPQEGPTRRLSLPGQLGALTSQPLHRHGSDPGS

CC1(C)[C@H](Nc2c(C(N)=O)cnn3cccc23)CC[C@]1(C)N
clearance [1]: 145 mL/min/kg
PB [2]: 97%
bioavailability [3]: 24%
CL [4]: > 100%

C[C@@H]1CCN(C(=O)CC#N)C[C@@H]1N(C)c1ncnc2[nH]ccc12
Activity [5]: Active
Activity [6]: Active

CC1(C)[C@H](Nc2c(C(N)=O)cnn3cc(-c4ccc(F)nc4)cc23)CC[C@]1(C)N
concentration at 8 h [7]: 100 nM
Ratio IC50 [8]: 13
pIC50 [9]: 4.46
remaining at 10 min [10]: 88%
pIC50 [11]: 8.66
pIC50 [12]: 7.57
Papp A→B [13]: < 1.5 ×10⁻⁶ cm/s
pIC50 [14]: 7.00
pIC50 [15]: 7.72
Cmax [16]: 300 nM
pIC50 [17]: 9.40
